Converted amounts (≈) assume the structure as drawn. The source made the active and inactive calls. No cut-off for these calls is given here.
Legend:
K562 = test: cells; type: functional, cell-based; settings: Homo sapiens, K562, 72 h
Description: Antiproliferative activity against human K562 cells assessed as inhibition of cell viability measured after 72 hrs by real-time IncuCyte proliferation analysis

HL-60 [1] = test: Cell cycle arrest in human HL-60 cells assessed as decrease in accumulation in S phase at 8 uM incubated for 48 hrs by propidium iodide based flow cytometric analysis (reference value: 28.42%); type: functional; design: scale not given: the % may be the effect or the level left
HL-60 [2] = test: cells; type: functional, cell-based; settings: Homo sapiens, HL-60, 72 h
Description: Antiproliferative activity against human HL-60 cells assessed as inhibition of cell viability measured after 72 hrs by real-time IncuCyte proliferation analysis

HL-60 [3] = test: Induction of apoptosis in human HL-60 cells assessed as live cells at 6 uM in presence of 3-MA after 48 hrs by Annexin V-PE/7-AAD dual staining based flow cytometry (reference value: 91.1%); type: functional
HL-60 [4] = test: Induction of apoptosis in human HL-60 cells assessed as late apoptotic cells at 10 uM in presence of 3-MA after 48 hrs by Annexin V-PE/7-AAD dual staining based flow cytometry (reference value: 3.12%); type: functional
HL-60 [5] = test: Induction of apoptosis in human HL-60 cells assessed as live cells at 6 uM after 48 hrs by Annexin V-PE/7-AAD dual staining based flow cytometry (reference value: 90.1 to 90.7%); type: functional
MV4-11 = test: cells; type: functional, cell-based; settings: Homo sapiens, MV4-11, 72 h
Description: Cytotoxicity against human MV4-11cells assessed as inhibition of cell viability measured after 72 hrs by real-time IncuCyte proliferation analysis

LN-229 = test: Antiproliferative activity against human LN-229 cells assessed as inhibition of cell viability measured after 72 hrs by colorimetric MTS viability assay; type: functional, cell-based; settings: LN-229, 72 h
CAPAN-1 = test: cells; type: functional, cell-based; settings: Homo sapiens, CAPAN-1, 72 h
Description: Antiproliferative activity against human CAPAN-1 cells assessed as inhibition of cell viability measured after 72 hrs by colorimetric MTS viability assay

HL-60 [6] = test: Induction of apoptosis in human HL-60 cells assessed as necrotic cells at 6 uM after 48 hrs by Annexin V-PE/7-AAD dual staining based flow cytometry (reference value: 2.64 to 3.64%); type: functional
[7] = Antiproliferative activity against human HAP1 cells assessed as inhibition of cell viability measured after 72 hrs by colorimetric MTS viability assay; type: functional, cell-based; settings: HAP1, 72 h
Jurkat = test: cells; type: functional, cell-based; settings: Homo sapiens, 72 h
Description: Cytotoxicity against human Jurkat cells assessed as inhibition of cell viability measured after 72 hrs by real-time IncuCyte proliferation analysis

HL-60 [8] = test: Induction of mitochondrial membrane potential loss in human HL-60 cells at 8 uM after 48 hrs by JC-1 staining based flow cytometry (reference value: 3.49%); type: functional
Z-138 = test: cells; type: functional, cell-based; settings: Homo sapiens, Z-138, 72 h
Description: Antiproliferative activity against human Z138 cells assessed as inhibition of cell viability measured after 72 hrs by real-time IncuCyte proliferation analysis

HL-60 [9] = test: Induction of apoptosis in human HL-60 cells assessed as necrotic cells at 6 uM in presence of 3-MA after 48 hrs by Annexin V-PE/7-AAD dual staining based flow cytometry (reference value: 2.62%); type: functional
HL-60 [10] = test: Induction of apoptosis in human HL-60 cells assessed as early apoptotic cells at 6 uM in presence of 3-MA after 48 hrs by Annexin V-PE/7-AAD dual staining based flow cytometry (reference value: 3.14%); type: functional
HL-60 [11] = test: Induction of apoptosis in human HL-60 cells assessed as late apoptotic cells at 6 uM after 48 hrs by Annexin V-PE/7-AAD dual staining based flow cytometry (reference value: 3.93%); type: functional
HL-60 [12] = test: Cell cycle arrest in human HL-60 cells assessed as increase in accumulation in G0/G1 phase at 10 uM incubated for 48 hrs by propidium iodide based flow cytometric analysis (Rvb =64.97%); type: functional
HL-60 [13] = test: Induction of apoptosis in human HL-60 cells assessed as late apoptotic cells at 8 uM in presence of 3-MA after 48 hrs by Annexin V-PE and 7AAD based flow cytometry (reference value: 3.12%); type: functional
HL-60 [14] = test: Cell cycle arrest in human HL-60 cells assessed as accumulation of cells at G2/M phase at 10 uM incubated for 48 hrs by propidium based flow cytometric analysis (reference value: 6.61%); type: functional
HL-60 [15] = test: Induction of apoptosis in human HL-60 cells assessed as necrotic cells at 10 uM in presence of 3-MA after 48 hrs by Annexin V-PE/7-AAD dual staining based flow cytometry (reference value: 2.62%); type: functional
HL-60 [16] = test: Induction of apoptosis in human HL-60 cells assessed as necrotic cells at 8 uM after 48 hrs by Annexin V-PE and 7AAD based flow cytometry (reference value: 2.64 to 3.64%); type: functional
Listeria innocua = test: Antibacterial activity against Listeria innocua LMG11387 assessed as growth inhibition after 20 hrs by broth microdilution method; type: functional
HL-60 [17] = test: Induction of apoptosis in human HL-60 cells assessed as late apoptotic cells at 10 uM after 48 hrs by Annexin V-PE/7-AAD dual staining based flow cytometry (reference value: 3.93%); type: functional
HCT-116 = test: Antiproliferative activity against human HCT-116 cells assessed as inhibition of cell viability measured after 72 hrs by colorimetric MTS viability assay; type: functional, cell-based; settings: HCT-116, 72 h
HL-60 [18] = test: Induction of apoptosis in human HL-60 cells assessed as necrotic cells at 8 uM in presence of 3-MA after 48 hrs by Annexin V-PE and 7AAD based flow cytometry (reference value: 2.62%); type: functional
[19] = test system: Salmonella enterica subsp. enterica; test: Antibacterial activity against Salmonella enterica subsp.enterica ATCC13076 assessed as growth inhibition after 20 hrs by broth microdilution method; type: functional
Rec1 = test: cells; type: functional, cell-based; settings: Homo sapiens, Rec1, 72 h
Description: Cytotoxicity against human REC1 cells assessed as inhibition of cell viability measured after 72 hrs by real-time IncuCyte proliferation analysis

HL-60 [20] = test: Induction of apoptosis in human HL-60 cells assessed as early apoptotic cells at 10 uM after 48 hrs by Annexin V-PE/7-AAD dual staining based flow cytometry (reference value: 1.72 to 3.25%); type: functional
HL-60 [21] = test: Induction of autophagy in human HL-60 cells assessed as fold increase in MDC fluorescence intensity at 6 uM measured after 48 hrs by flow cytometry relative to control; type: functional
HL-60 [22] = test: Induction of apoptosis in human HL-60 cells assessed as late apoptotic cells at 8 uM after 48 hrs by Annexin V-PE/7-AAD dual staining based flow cytometry (Rvb =3.93%); type: functional
HL-60 [23] = test: Induction of apoptosis in human HL-60 cells assessed as necrotic cells at 10 uM after 48 hrs by Annexin V-PE/7-AAD dual staining based flow cytometry (reference value: 2.64 to 3.64%); type: functional
HL-60 [24] = test: Induction of mitochondrial membrane potential loss in human HL-60 cells at 10 uM after 48 hrs by JC-1 staining based flow cytometry (reference value: 3.49%); type: functional
HL-60 [25] = test: Cell cycle arrest in human HL-60 cells assessed as accumulation of cells at G2/M phase at 8 uM incubated for 48 hrs by propidium iodide based flow cytometric analysis (reference value: 6.61%); type: functional
HL-60 [26] = test: Induction of apoptosis in human HL-60 cells assessed as live cells at 10 uM in presence of 3-MA after 48 hrs by Annexin V-PE/7-AAD dual staining based flow cytometry (reference value: 91.1%); type: functional
HL-60 [27] = test: Induction of apoptosis in human HL-60 cells assessed as early apoptotic cells at 6 uM after 48 hrs by Annexin V-PE/7-AAD dual staining based flow cytometry (reference value: 1.72 to 3.25%); type: functional

## COc1ccc2[nH]cc(CCn3nnc4c3C(C)(C)[C@@H]3CC[C@]5(C)[C@H](CC=C6[C@@H]7CC(C)(C)CC[C@]7(C(=O)O)CC[C@]65C)[C@@]3(C)C4)c2c1
K562
  IC50: 80.7 µM
HL-60 [1]
  Activity: 20.46%
HL-60 [2]
  IC50: 1.3 µM
HL-60 [3]
  Activity: 82.1%
HL-60 [4]
  Activity: 30.8%
HL-60 [5]
  Activity: 80%
MV4-11
  IC50: 12.8 µM
LN-229
  IC50: 44.1 µM
CAPAN-1
  IC50: 8.1 µM
HL-60 [6]
  Activity: 0.501%
[7]
  IC50: 4.1 µM
Jurkat
  IC50: 8.7 µM
HL-60 [8]
  Activity: 33.9%
Z-138
  IC50: 11.3 µM
HL-60 [9]
  Activity: 0.358%
HL-60 [10]
  Activity: 3.91%
HL-60 [11]
  Activity: 6.26%
HL-60 [12]
  Activity: 85.45%
HL-60 [13]
  Activity: 8.89%
HL-60 [14]
  Activity: 3.16%
HL-60 [15]
  Activity: 0.317%
HL-60 [16]
  Activity: 0.415%
Listeria innocua
  MIC50: 103 µg/mL (≈ 158 µM)
HL-60 [17]
  Activity: 63.2%
HCT-116
  IC50: 15.2 µM
HL-60 [18]
  Activity: 2.21%
[19]
  MIC50: inactive
Rec1
  IC50: 6.2 µM
HL-60 [20]
  Activity: 8.13%
HL-60 [21]
  fold change (FC): 1.49
HL-60 [22]
  Activity: 34.3%
HL-60 [23]
  Activity: 0.628%
HL-60 [24]
  Activity: 60.8%
HL-60 [25]
  Activity: 5.02%
HL-60 [26]
  Activity: 54.2%
HL-60 [27]
  Activity: 3.06%
